Data: ChEMBL document CHEMBL5442219

Tests used:
Settings in all cases: Compound concentration 10 µM
[1] = target: 5-hydroxytryptamine receptor 1B (Homo sapiens) (UniProt P28222)
Description: PDSP Primary Binding target: HTR1B - Compounds are tested at 10 uM concentration, plate are incubated at room temperature in the dark for 90 minutes. Reaction are stopped by vacuum filtration onto 0.3% polyethyleneimine soaked filter mats using Filtermate harvester. Scintilation cocktail is then melted onto microwave-dried filters on a hot plate and the radio activity is counted in Microbia counter.

[2] = target: Sigma non-opioid intracellular receptor 1 (Homo sapiens) (UniProt Q99720)
Description: PDSP Primary Binding target: SIGMAR1 - Compounds are tested at 10 uM concentration, plate are incubated at room temperature in the dark for 90 minutes. Reaction are stopped by vacuum filtration onto 0.3% polyethyleneimine soaked filter mats using Filtermate harvester. Scintilation cocktail is then melted onto microwave-dried filters on a hot plate and the radio activity is counted in Microbia counter.

[3] = target: T1, Muscarinic acetylcholine receptor M5 (Homo sapiens) (UniProt P08912)
T1 sequence (whole entry): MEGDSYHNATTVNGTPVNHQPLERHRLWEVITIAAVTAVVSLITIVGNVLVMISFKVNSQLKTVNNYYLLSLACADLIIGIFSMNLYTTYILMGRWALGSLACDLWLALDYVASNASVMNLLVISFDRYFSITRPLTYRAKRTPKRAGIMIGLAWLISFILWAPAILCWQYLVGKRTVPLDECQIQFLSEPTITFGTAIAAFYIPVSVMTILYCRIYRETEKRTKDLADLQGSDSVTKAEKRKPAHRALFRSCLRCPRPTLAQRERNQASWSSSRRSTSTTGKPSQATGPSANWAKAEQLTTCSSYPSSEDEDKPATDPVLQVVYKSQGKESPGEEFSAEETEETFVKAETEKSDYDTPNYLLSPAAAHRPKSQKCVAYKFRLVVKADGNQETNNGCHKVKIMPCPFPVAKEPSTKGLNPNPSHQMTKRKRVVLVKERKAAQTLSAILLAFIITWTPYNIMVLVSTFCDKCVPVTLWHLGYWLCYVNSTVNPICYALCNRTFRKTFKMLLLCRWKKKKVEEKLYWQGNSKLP
Description: PDSP Primary Binding target: CHRM5 - Compounds are tested at 10 uM concentration, plate are incubated at room temperature in the dark for 90 minutes. Reaction are stopped by vacuum filtration onto 0.3% polyethyleneimine soaked filter mats using Filtermate harvester. Scintilation cocktail is then melted onto microwave-dried filters on a hot plate and the radio activity is counted in Microbia counter.

[4] = target: T2, 5-hydroxytryptamine receptor 1A (Homo sapiens) (UniProt P08908)
T2 sequence (whole entry): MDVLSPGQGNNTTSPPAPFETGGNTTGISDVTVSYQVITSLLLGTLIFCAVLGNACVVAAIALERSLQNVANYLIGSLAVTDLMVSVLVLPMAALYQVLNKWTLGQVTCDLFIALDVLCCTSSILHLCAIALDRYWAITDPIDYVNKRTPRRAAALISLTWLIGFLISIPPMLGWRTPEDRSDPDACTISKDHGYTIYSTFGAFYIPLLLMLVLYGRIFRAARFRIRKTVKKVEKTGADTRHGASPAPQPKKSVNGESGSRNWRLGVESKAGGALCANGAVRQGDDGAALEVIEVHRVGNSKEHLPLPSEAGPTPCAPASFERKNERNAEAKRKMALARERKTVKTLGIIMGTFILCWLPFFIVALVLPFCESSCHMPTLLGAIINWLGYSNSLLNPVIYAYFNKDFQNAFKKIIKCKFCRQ
Description: PDSP Primary Binding target: HTR1A - Compounds are tested at 10 uM concentration, plate are incubated at room temperature in the dark for 90 minutes. Reaction are stopped by vacuum filtration onto 0.3% polyethyleneimine soaked filter mats using Filtermate harvester. Scintilation cocktail is then melted onto microwave-dried filters on a hot plate and the radio activity is counted in Microbia counter.

[5] = target: 5-hydroxytryptamine receptor 5A (Homo sapiens) (UniProt P47898)
Sequence of 5-hydroxytryptamine receptor 5A (Homo sapiens) (P47898 whole entry): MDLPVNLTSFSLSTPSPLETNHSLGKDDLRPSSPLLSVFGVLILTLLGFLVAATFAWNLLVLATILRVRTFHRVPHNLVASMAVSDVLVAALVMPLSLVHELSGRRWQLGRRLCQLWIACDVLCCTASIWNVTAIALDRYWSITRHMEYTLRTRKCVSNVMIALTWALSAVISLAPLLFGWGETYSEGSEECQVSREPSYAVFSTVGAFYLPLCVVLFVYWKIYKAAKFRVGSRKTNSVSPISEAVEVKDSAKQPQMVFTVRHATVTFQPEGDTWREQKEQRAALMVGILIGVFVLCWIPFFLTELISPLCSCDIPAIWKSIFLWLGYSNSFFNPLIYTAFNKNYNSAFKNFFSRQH
Description: PDSP Primary Binding target: HTR5A - Compounds are tested at 10 uM concentration, plate are incubated at room temperature in the dark for 90 minutes. Reaction are stopped by vacuum filtration onto 0.3% polyethyleneimine soaked filter mats using Filtermate harvester. Scintilation cocktail is then melted onto microwave-dried filters on a hot plate and the radio activity is counted in Microbia counter.

[6] = target: Sodium-dependent dopamine transporter (Homo sapiens) (UniProt Q01959)
Sequence of Sodium-dependent dopamine transporter (Homo sapiens) (Q01959 whole entry): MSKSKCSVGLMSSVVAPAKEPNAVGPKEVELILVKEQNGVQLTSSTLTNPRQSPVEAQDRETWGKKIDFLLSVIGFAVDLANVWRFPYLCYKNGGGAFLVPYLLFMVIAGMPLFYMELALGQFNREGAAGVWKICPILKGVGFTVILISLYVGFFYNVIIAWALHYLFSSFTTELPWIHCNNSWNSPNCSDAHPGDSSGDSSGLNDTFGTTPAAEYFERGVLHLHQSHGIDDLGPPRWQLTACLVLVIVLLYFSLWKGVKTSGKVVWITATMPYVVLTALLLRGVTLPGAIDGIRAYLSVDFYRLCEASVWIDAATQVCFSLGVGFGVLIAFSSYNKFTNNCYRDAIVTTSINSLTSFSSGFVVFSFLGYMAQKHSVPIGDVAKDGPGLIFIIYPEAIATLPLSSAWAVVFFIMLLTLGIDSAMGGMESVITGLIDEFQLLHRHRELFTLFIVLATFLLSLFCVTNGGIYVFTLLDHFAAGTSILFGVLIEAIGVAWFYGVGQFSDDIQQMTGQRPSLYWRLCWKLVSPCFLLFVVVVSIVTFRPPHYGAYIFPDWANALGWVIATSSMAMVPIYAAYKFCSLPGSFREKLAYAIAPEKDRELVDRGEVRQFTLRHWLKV
Description: PDSP Primary Binding target: SLC6A3 - Compounds are tested at 10 uM concentration, plate are incubated at room temperature in the dark for 90 minutes. Reaction are stopped by vacuum filtration onto 0.3% polyethyleneimine soaked filter mats using Filtermate harvester. Scintilation cocktail is then melted onto microwave-dried filters on a hot plate and the radio activity is counted in Microbia counter.

[7] = target: Histamine H1 receptor (Homo sapiens) (UniProt P35367)
Sequence of Histamine H1 receptor (Homo sapiens) (P35367 whole entry): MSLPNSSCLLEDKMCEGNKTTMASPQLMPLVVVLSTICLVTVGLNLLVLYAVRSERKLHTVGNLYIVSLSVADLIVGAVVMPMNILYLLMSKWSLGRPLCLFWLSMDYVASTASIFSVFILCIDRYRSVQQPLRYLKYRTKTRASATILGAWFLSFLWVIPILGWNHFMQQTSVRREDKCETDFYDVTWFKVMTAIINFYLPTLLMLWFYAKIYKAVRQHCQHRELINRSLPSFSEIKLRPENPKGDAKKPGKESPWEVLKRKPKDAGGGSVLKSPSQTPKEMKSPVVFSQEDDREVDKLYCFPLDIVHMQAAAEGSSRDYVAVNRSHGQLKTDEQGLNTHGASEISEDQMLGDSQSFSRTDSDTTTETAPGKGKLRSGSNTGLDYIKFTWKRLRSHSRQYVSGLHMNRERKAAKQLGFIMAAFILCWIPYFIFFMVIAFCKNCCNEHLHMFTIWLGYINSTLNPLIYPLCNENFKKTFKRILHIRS
Description: PDSP Primary Binding target: HRH1 - Compounds are tested at 10 uM concentration, plate are incubated at room temperature in the dark for 90 minutes. Reaction are stopped by vacuum filtration onto 0.3% polyethyleneimine soaked filter mats using Filtermate harvester. Scintilation cocktail is then melted onto microwave-dried filters on a hot plate and the radio activity is counted in Microbia counter.

[8] = target: D(3) dopamine receptor (Homo sapiens) (UniProt P35462)
Sequence of D(3) dopamine receptor (Homo sapiens) (P35462 whole entry): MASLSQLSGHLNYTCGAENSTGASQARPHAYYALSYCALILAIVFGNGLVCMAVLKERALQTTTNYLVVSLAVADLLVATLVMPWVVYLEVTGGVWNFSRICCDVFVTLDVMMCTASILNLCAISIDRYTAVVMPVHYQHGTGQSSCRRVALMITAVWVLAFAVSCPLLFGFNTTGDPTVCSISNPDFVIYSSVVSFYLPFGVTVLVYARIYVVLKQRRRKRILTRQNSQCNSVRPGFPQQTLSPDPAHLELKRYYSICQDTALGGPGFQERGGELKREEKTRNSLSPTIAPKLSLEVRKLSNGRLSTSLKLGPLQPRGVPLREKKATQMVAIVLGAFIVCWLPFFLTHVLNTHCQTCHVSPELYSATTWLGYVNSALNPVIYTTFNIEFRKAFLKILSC
Description: PDSP Primary Binding target: DRD3 - Compounds are tested at 10 uM concentration, plate are incubated at room temperature in the dark for 90 minutes. Reaction are stopped by vacuum filtration onto 0.3% polyethyleneimine soaked filter mats using Filtermate harvester. Scintilation cocktail is then melted onto microwave-dried filters on a hot plate and the radio activity is counted in Microbia counter.

[9] = target: Beta-3 adrenergic receptor (Homo sapiens) (UniProt P13945)
Sequence of Beta-3 adrenergic receptor (Homo sapiens) (P13945 whole entry, looked up): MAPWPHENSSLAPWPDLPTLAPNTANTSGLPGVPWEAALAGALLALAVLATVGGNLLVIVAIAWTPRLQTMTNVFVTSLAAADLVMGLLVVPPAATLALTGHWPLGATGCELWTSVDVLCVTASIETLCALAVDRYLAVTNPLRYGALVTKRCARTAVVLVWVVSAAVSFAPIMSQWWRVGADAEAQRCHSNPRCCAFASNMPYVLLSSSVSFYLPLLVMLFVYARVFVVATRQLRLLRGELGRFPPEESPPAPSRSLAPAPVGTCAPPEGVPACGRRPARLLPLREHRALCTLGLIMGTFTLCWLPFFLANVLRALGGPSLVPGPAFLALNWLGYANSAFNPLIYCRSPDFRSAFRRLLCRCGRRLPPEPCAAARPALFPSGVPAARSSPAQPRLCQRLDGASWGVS
Description: PDSP Primary Binding target: ADRB3 - Compounds are tested at 10 uM concentration, plate are incubated at room temperature in the dark for 90 minutes. Reaction are stopped by vacuum filtration onto 0.3% polyethyleneimine soaked filter mats using Filtermate harvester. Scintilation cocktail is then melted onto microwave-dried filters on a hot plate and the radio activity is counted in Microbia counter.

[10] = target: Sodium-dependent serotonin transporter (Homo sapiens) (UniProt P31645)
Sequence of Sodium-dependent serotonin transporter (Homo sapiens) (P31645 whole entry, looked up): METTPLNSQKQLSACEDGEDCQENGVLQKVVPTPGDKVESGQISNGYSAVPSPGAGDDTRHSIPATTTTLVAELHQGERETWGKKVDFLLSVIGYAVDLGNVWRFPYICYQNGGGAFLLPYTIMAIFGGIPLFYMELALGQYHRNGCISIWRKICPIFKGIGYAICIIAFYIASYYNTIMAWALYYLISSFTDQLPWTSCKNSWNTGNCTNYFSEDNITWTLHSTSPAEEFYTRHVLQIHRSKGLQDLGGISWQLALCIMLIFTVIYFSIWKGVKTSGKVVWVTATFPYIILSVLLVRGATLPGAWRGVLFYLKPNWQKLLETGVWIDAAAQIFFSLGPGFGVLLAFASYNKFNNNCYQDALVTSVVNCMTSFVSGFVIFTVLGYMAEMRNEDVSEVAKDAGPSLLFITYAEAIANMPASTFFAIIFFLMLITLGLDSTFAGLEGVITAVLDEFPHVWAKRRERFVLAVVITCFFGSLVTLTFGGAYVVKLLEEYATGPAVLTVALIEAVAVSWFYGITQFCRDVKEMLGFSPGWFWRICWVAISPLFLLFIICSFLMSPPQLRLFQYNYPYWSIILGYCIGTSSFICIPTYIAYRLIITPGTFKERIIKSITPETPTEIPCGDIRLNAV
Description: PDSP Primary Binding target: SLC6A4 - Compounds are tested at 10 uM concentration, plate are incubated at room temperature in the dark for 90 minutes. Reaction are stopped by vacuum filtration onto 0.3% polyethyleneimine soaked filter mats using Filtermate harvester. Scintilation cocktail is then melted onto microwave-dried filters on a hot plate and the radio activity is counted in Microbia counter.

[11] = target: T3, Alpha-2C adrenergic receptor (Homo sapiens) (UniProt P18825)
T3 sequence (whole entry): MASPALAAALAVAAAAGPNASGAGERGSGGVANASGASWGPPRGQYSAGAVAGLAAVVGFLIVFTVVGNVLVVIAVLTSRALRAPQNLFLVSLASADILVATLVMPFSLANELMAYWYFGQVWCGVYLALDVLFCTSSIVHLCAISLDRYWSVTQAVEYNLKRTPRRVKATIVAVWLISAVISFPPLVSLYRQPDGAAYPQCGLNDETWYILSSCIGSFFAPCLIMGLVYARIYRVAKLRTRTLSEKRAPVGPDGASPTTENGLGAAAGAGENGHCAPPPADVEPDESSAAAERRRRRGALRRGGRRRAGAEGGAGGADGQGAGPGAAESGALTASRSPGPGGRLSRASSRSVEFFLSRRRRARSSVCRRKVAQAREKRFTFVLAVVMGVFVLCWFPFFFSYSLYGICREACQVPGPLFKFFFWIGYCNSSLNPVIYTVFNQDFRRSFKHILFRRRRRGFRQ
Description: PDSP Primary Binding target: ADRA2C - Compounds are tested at 10 uM concentration, plate are incubated at room temperature in the dark for 90 minutes. Reaction are stopped by vacuum filtration onto 0.3% polyethyleneimine soaked filter mats using Filtermate harvester. Scintilation cocktail is then melted onto microwave-dried filters on a hot plate and the radio activity is counted in Microbia counter.

[12] = target: D(2) dopamine receptor (Homo sapiens) (UniProt P14416)
Sequence of D(2) dopamine receptor (Homo sapiens) (P14416 whole entry): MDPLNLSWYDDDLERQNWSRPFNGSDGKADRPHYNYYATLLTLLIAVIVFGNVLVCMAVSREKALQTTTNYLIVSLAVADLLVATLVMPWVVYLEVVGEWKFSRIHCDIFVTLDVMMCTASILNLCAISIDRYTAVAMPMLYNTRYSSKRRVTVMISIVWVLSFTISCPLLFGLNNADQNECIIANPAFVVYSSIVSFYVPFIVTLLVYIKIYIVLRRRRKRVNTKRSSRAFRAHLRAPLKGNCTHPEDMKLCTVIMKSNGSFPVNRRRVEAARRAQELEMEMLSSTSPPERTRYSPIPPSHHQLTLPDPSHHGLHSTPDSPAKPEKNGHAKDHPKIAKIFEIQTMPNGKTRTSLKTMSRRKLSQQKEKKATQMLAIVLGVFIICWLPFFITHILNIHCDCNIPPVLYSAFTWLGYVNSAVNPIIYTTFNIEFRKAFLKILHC
Description: PDSP Primary Binding target: DRD2 - Compounds are tested at 10 uM concentration, plate are incubated at room temperature in the dark for 90 minutes. Reaction are stopped by vacuum filtration onto 0.3% polyethyleneimine soaked filter mats using Filtermate harvester. Scintilation cocktail is then melted onto microwave-dried filters on a hot plate and the radio activity is counted in Microbia counter.

[13] = target: 5-hydroxytryptamine receptor 7 (Homo sapiens) (UniProt P34969)
Sequence of 5-hydroxytryptamine receptor 7 (Homo sapiens) (P34969 whole entry): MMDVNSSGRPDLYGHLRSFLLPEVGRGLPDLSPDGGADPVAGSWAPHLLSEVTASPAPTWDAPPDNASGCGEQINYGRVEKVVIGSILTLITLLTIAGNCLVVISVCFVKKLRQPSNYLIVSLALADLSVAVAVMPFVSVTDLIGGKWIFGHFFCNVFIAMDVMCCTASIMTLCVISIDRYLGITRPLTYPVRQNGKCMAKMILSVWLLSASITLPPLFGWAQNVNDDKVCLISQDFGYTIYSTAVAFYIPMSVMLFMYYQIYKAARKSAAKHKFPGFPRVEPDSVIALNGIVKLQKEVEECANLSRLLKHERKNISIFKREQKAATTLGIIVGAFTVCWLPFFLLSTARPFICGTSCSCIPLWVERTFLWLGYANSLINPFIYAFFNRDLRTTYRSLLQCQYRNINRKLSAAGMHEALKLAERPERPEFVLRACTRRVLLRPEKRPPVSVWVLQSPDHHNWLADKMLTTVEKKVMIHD
Description: PDSP Primary Binding target: HTR7 - Compounds are tested at 10 uM concentration, plate are incubated at room temperature in the dark for 90 minutes. Reaction are stopped by vacuum filtration onto 0.3% polyethyleneimine soaked filter mats using Filtermate harvester. Scintilation cocktail is then melted onto microwave-dried filters on a hot plate and the radio activity is counted in Microbia counter.

[14] = target: Histamine H2 receptor (Homo sapiens) (UniProt P25021)
Sequence of Histamine H2 receptor (Homo sapiens) (P25021 whole entry): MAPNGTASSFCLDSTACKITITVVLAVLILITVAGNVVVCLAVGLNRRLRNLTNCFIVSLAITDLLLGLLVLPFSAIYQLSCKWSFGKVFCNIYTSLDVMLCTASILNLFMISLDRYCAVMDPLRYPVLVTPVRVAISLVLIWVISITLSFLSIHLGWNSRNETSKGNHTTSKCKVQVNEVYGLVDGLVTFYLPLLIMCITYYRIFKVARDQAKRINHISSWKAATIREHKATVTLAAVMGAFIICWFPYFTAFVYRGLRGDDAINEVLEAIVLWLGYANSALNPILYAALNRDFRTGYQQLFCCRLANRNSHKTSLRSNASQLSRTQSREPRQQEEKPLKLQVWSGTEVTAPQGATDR
Description: PDSP Primary Binding target: HRH2 - Compounds are tested at 10 uM concentration, plate are incubated at room temperature in the dark for 90 minutes. Reaction are stopped by vacuum filtration onto 0.3% polyethyleneimine soaked filter mats using Filtermate harvester. Scintilation cocktail is then melted onto microwave-dried filters on a hot plate and the radio activity is counted in Microbia counter.

[15] = target: Translocator protein (Homo sapiens) (UniProt P30536)
Description: PDSP Primary Binding target: TSPO - Compounds are tested at 10 uM concentration, plate are incubated at room temperature in the dark for 90 minutes. Reaction are stopped by vacuum filtration onto 0.3% polyethyleneimine soaked filter mats using Filtermate harvester. Scintilation cocktail is then melted onto microwave-dried filters on a hot plate and the radio activity is counted in Microbia counter.

[16] = target: T4, Muscarinic acetylcholine receptor M2 (Homo sapiens) (UniProt P08172)
T4 sequence (whole entry): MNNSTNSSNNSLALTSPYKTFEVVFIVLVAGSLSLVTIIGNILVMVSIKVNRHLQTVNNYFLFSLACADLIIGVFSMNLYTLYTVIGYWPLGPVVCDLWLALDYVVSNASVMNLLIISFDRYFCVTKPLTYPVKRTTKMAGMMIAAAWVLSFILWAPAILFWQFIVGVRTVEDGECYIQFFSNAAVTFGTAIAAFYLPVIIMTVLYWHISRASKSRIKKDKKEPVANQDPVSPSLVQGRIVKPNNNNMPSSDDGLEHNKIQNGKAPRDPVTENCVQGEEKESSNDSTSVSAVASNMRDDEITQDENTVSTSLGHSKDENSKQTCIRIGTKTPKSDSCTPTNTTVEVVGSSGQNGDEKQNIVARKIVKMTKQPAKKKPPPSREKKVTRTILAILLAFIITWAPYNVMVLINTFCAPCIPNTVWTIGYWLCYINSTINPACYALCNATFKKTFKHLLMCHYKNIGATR
Description: PDSP Primary Binding target: CHRM2 - Compounds are tested at 10 uM concentration, plate are incubated at room temperature in the dark for 90 minutes. Reaction are stopped by vacuum filtration onto 0.3% polyethyleneimine soaked filter mats using Filtermate harvester. Scintilation cocktail is then melted onto microwave-dried filters on a hot plate and the radio activity is counted in Microbia counter.

Sequence of Sigma non-opioid intracellular receptor 1 (Homo sapiens) (Q99720 whole entry): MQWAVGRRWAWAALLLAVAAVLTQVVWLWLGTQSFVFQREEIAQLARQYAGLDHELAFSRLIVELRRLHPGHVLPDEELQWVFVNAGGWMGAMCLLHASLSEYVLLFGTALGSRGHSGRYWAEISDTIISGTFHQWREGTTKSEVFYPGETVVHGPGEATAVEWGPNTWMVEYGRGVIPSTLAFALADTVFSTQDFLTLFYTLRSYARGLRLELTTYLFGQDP
Sequence of 5-hydroxytryptamine receptor 1B (Homo sapiens) (P28222 whole entry): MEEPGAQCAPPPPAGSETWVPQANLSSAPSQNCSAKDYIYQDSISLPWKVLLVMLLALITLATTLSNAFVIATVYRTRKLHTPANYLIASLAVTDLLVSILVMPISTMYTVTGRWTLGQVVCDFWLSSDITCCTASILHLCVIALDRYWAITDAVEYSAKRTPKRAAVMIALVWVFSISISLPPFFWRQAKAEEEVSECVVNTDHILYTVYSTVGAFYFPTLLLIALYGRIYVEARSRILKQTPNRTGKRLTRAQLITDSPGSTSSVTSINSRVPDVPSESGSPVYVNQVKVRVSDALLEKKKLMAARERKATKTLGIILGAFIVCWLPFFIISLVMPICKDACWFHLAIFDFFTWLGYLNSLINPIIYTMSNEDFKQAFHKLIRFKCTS

N#Cc1c[nH]c2c(C(=O)N3CCN(CCc4ccc(F)cc4)CC3)cccc12
inhibition [1]: -5.18%
inhibition [2]: 87.6%
inhibition [3]: -9.78%
inhibition [4]: 21.2%
inhibition [5]: 12.6%
inhibition [6]: 36.2%
inhibition [7]: 46.1%
inhibition [8]: 10.4%
inhibition [9]: 22.4%
inhibition [10]: 60.4%
inhibition [11]: 38.2%
inhibition [12]: 7.47%
inhibition [13]: 50.6%
inhibition [14]: 4.27%

Cc1nc(C#Cc2ccnc(Cl)c2)c(C)n1-c1ccc(OC(F)(F)F)cc1
inhibition [1]: 11.3%
inhibition [2]: 56.3%
inhibition [15]: 64.3%
inhibition [3]: -6.77%
inhibition [4]: 10.3%
inhibition [5]: 30%
inhibition [6]: 8%
inhibition [7]: -4.73%
inhibition [8]: 13.1%
inhibition [9]: 63%
inhibition [11]: -5.37%
inhibition [12]: 28.3%
inhibition [13]: 7.42%
inhibition [14]: 10.4%
inhibition [16]: -0.78%

Cc1c(F)cccc1NC(=O)Nc1ccc(Cl)c(S(=O)(=O)[C@H]2CCCNC2)c1O
inhibition [1]: 8.6%
inhibition [2]: 9.71%
inhibition [15]: 8.9%
inhibition [5]: 16.5%
inhibition [6]: 14.9%
inhibition [7]: 25.6%
inhibition [8]: 25.8%
inhibition [9]: 17.8%
inhibition [10]: -2.95%
inhibition [11]: -6.11%
inhibition [12]: 11.7%
inhibition [13]: -3.91%
inhibition [14]: 18.3%

N#Cc1ccc(NC(=O)Nc2ccccc2Br)c2nn[nH]c12
inhibition [1]: 1.05%
inhibition [2]: 9.64%
inhibition [15]: 53.9%
inhibition [3]: 6.48%
inhibition [4]: 6.16%
inhibition [6]: 59.8%
inhibition [7]: 0.77%
inhibition [8]: 43.3%
inhibition [9]: 75%
inhibition [10]: 26.5%
inhibition [11]: 4.08%
inhibition [12]: -0.4%
inhibition [14]: 17.7%
inhibition [16]: 29.7%

Cc1ccc2c(c1)c1c(n2CCc2ccc(C)nc2)CCN(C)C1
inhibition [1]: 74.3%
inhibition [2]: 71.7%
inhibition [15]: 11.9%
inhibition [3]: -2.89%
inhibition [4]: 39.1%
inhibition [5]: 94.8%
inhibition [7]: 95.1%
inhibition [8]: 72.3%
inhibition [9]: 0.23%
inhibition [10]: -8.68%
inhibition [11]: 73.6%
inhibition [12]: 57.8%
inhibition [13]: 90.7%
inhibition [14]: 96.5%

CN(C)S(=O)(=O)c1ccc(NC(=S)N2CCC(C(O)(c3ccccc3)c3ccccc3)CC2)cc1
inhibition [2]: 45.3%
inhibition [15]: 75.4%
inhibition [4]: 10.5%
inhibition [6]: 33.1%
inhibition [7]: 6.41%
inhibition [8]: 21.5%
inhibition [9]: 57.7%
inhibition [10]: 16%
inhibition [11]: 21.8%
inhibition [12]: 23.4%
inhibition [14]: 18.6%

O=C(O)C1CN(Cc2ccc(-c3nc4cc(Cc5ccccc5F)ccc4s3)c(F)c2)C1
inhibition [2]: 5.12%
inhibition [15]: 22.3%
inhibition [4]: 11.5%
inhibition [5]: 7.19%
inhibition [6]: 30.2%
inhibition [7]: 37.5%
inhibition [8]: 91%
inhibition [9]: -2.08%
inhibition [10]: -1.28%
inhibition [11]: 20.6%
inhibition [14]: 1.06%
inhibition [16]: -8.59%

O=C(O)CC1CCC2(CC1)CCN(c1cc(OC(F)(F)F)ccc1Cl)CC2
inhibition [1]: -0.21%
inhibition [2]: -0.46%
inhibition [15]: 7.83%
inhibition [3]: -6.92%
inhibition [4]: -1.2%
inhibition [6]: 7.81%
inhibition [7]: 31.1%
inhibition [8]: 65.5%
inhibition [9]: 17.5%
inhibition [10]: 29.8%
inhibition [11]: 0.13%
inhibition [12]: 18.6%
inhibition [14]: -4.3%
inhibition [16]: 27.1%

CO[C@@H]1COCC[C@@H]1N[C@@H]1CC[C@@](C(=O)N2CCc3ncc(C(F)(F)F)cc3C2)(C(C)C)C1
inhibition [1]: -6.23%
inhibition [2]: 81.8%
inhibition [15]: 11.4%
inhibition [3]: -4.29%
inhibition [4]: 19.6%
inhibition [6]: 14.2%
inhibition [7]: 25.1%
inhibition [8]: 33.7%
inhibition [9]: 47.5%
inhibition [10]: -2.04%
inhibition [11]: 3.2%
inhibition [12]: 16.4%
inhibition [14]: 14.9%
inhibition [16]: 8.25%

CS(=O)(=O)NC[C@H]1CC[C@H](Nc2nc3c(s2)CCSc2ccccc2-3)CC1
inhibition [2]: 45.3%
inhibition [15]: 35.9%
inhibition [3]: -4.92%
inhibition [4]: 35.6%
inhibition [5]: 64.7%
inhibition [6]: 3.98%
inhibition [7]: 18.7%
inhibition [8]: 67.2%
inhibition [9]: 45.4%
inhibition [10]: 13.6%
inhibition [11]: 37.1%
inhibition [12]: 4.83%
inhibition [13]: 39.7%
inhibition [14]: -2.3%

Cc1cc(C)cc(-c2cnc3cc(Cl)c(-c4cccc(O)c4)cc3c2OCCCN)c1
inhibition [1]: 88.2%
inhibition [2]: 74.9%
inhibition [15]: 79.5%
inhibition [3]: 3.7%
inhibition [4]: 64.1%
inhibition [5]: 96.4%
inhibition [7]: 98.8%
inhibition [8]: 95.9%
inhibition [9]: 99.4%
inhibition [10]: 48.9%
inhibition [11]: 68%
inhibition [12]: 37.3%
inhibition [13]: 54.9%
inhibition [14]: 81.6%

FC(F)(F)c1c(N2CCC(c3ccccc3)CC2)ccn2c(CC3CC3)nnc12
inhibition [1]: -8.94%
inhibition [2]: 64.7%
inhibition [15]: 36.9%
inhibition [3]: -6.28%
inhibition [4]: -5.72%
inhibition [6]: 54.2%
inhibition [7]: 33%
inhibition [8]: 14.2%
inhibition [9]: 4.3%
inhibition [10]: 42.4%
inhibition [11]: 1.28%
inhibition [12]: 26%
inhibition [14]: 12.3%
inhibition [16]: 7.85%

FC(F)(F)c1cccc(-c2noc(-c3cc(-c4ccccc4)c(C(F)(F)F)s3)n2)c1
inhibition [1]: 1.92%
inhibition [2]: -0.34%
inhibition [15]: 5.27%
inhibition [3]: -4.18%
inhibition [4]: 2.88%
inhibition [5]: 18.8%
inhibition [6]: 17.8%
inhibition [7]: 17%
inhibition [9]: 23.6%
inhibition [11]: -0.68%
inhibition [12]: 24.7%
inhibition [13]: 7.06%
inhibition [14]: 16.3%
inhibition [16]: -7.48%

Clc1ccc(CCCOCCCN2CCCCC2)cc1
inhibition [1]: 12.1%
inhibition [2]: 99.5%
inhibition [15]: -6.49%
inhibition [3]: 23.1%
inhibition [4]: 16.8%
inhibition [5]: -0.39%
inhibition [6]: 25.6%
inhibition [7]: 68.7%
inhibition [8]: 47.4%
inhibition [9]: 1.84%
inhibition [11]: 49.4%
inhibition [12]: 6.98%
inhibition [13]: 63.3%
inhibition [14]: 33%
inhibition [16]: 34.5%
